This note sets out measurements from US10328075B2, “Method of treatment and compounds for use therein” (Baker Heart and Diabetes Institute, priority 2015, dated 2019).

Assay [1] addresses T1, hFPR1 (Homo sapiens, UniProt P21462).
T1 construct: expressed in transfected cells
T1 sequence (P21462 1-350): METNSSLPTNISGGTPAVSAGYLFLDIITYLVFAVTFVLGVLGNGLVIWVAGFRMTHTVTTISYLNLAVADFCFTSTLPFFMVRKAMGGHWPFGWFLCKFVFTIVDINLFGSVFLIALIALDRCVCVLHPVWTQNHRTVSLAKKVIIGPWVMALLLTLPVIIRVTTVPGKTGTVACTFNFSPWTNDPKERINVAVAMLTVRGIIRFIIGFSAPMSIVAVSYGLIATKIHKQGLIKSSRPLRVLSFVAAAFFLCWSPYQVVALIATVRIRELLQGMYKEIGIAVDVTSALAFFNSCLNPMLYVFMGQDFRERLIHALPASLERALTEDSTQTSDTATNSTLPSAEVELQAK
In words: [Ca2+]i mobilization in FlpIn-CHO cells stably expressing hFPR1. Also on record: Calcium Rmax: unit not given here. To be noted: Table 10, receptor not given, ND = Not detectable; for EC50: read-out: Calcium pEC50 (converted). Format: cell-based. The source says:
(§1) cDNDA construct and generation of stable cell lines: cDNA in pcDNA3.1^+ encoding the human formyl peptide receptors (FPR) subtypes, hFPR1, hFPR2 and hFPR3 was obtained from Invitrogen. The sequences for 3 hFPR receptors were amplified by PCR and cloned into the Gateway entry vector, pDONR202™, using the BP clonase enzyme mix, according to the manufactures' instructions (Invitrogen Inc, Carlsbad, Calif., USA). All hFPR receptors constructs in pDONR201™ were subsequently transfected into the pEF5/FRT/V5/dest vector using the LR clonase enzyme mix (Invitrogen). Receptor constructs (pEF5/FRT/V5/dest) were used to transfect FIp-In CHO cells as described previously (Valant C et al., PNAS, 2014). Cells were selected using 500 μg/mL hydromycin to generate cell lines stably expressing each receptor construct. Cells were maintained and cultured in high glucose DMEM supplemented with 10% FBS, 16 mM HEPES and 500 μg/mL hydromycin at 37° C. under a humidified atmosphere containing 5% CO2.
(§2) In the various assays described below, cells were plated into 96-well transparent cell culture plates at 4×10^4 cells per well, cultured overnight in serum-free media at 37° C. in 5% CO2.
Intracellular calcium mobilization: Intracellular calcium mobilization was assayed as described previously (Keov, P et al., 2014). Briefly, cells were washed once using HEPES buffered saline (HBS) solution [150 mM NaCl, 2.2 mM CaCl2, 2.6 mM KCl, 1.2 mM MgCl2, 10 mM HEPEs, 10 mM D-Glucose, 0.5% (w/v) bovine serum albumin (BSA) and 4 mM probenecid] at pH 7.4, then treated with Fluo-4-AM (1 μM, in HBS/BSA/probenecid) for 60 min at 37° C. in 5% CO2 in the dark. Cells were then further washed and placed in HBS/BSA/probenecid solution for ligation addition and assay using the FLEXstation 3 plate reader (Molecular Devices, Sunnyvale, Calif.). For all experiments, peak change in fluorescence signal was normalized to the cellular response to 100 μM ATP, which was used as an internal positive control.
(§3) Data analysis: All data were analysed using GraphPad Prism 6.0 (GraphPad Software, San Deigo, Calif., USA). Where appropriate, concentration-response curves were fitted to derive the maximal agonist effect (Emax), and the ligand potency estimate (pEC50), where Emax is the maximal possible response of the system (not the agonist), basal is the basal level of response in the absence of agonist, and pEC50 is the negative logarithm of the agonist concentration that gives a response halfway between Emax and basal.
In the present study, FIp-IN CHO cells and Gateway plasmid were obtained from Invitrogen Inc (Carlsbad, Calif., USA). The sequences for all 3 known human FPRs (hFPR1, hFPR2 and hFPR3) were amplified by PCR and cloned into the Gateway entry vector, pDONR202TM, using the BP clonase enzyme mix, according to the manufacturers' instructions. The hFPR pDONR201TM constructs were subsequently transfected into the pEF5/FRT/V5/dest vector using the LR clonase enzyme mix (Invitrogen). Receptor constructs (pEF5/FRT/V5/dest) were used to transfect FIp-IN CHO cells, as described previously (Valant et al. 2014). Cells were selected using 500 μg/mL hydromycin to generate cell lines stably expressing each human receptor construct. Cells were maintained and cultured in high glucose Dulbecco's modified eagle medium (DMEM) supplemented with 10% fetal bovine serum (FBS, from JRH Biosciences, Lenexa, Kans., USA) and 500 μg/mL hydromycin B (Invitrogen Inc) at 37° C. under a humidified atmosphere containing 5% CO2. Cell were plated into 96-well transparent cell culture plates at 4×10^4 cells per well, cultured overnight in serum-free media at 37° C. in 5% CO2.
(ii) Intracellular Ca2+ mobilization: Intracellular Ca2+ mobilization was determined in stably-transfected recombinant hFPR CHO cells, as described previously (Valant et al. 2014).

Assay [2] concerns the target T1, hFPR1. In words: ERK1/2 phosphorylation (AlphaScreen SureFire) in hFPR1-FlpIn-CHO cells. The settings on record: Table 10, receptor not given; for ERK pEC50 / EC50: values of 10394/10396 equal the hFPR1 values of Table 9; for EC50: read-out: ERK pEC50 (converted). The assay is classed as cell-based.
Excerpt: as §1, §2
Measurement of extracellular signal regulated kinase 1 and 2 phosphorylation (pERK1/2): Initial ERK1/2 phosphorylation at Thr202/Tyr204 time-course experiments were performed to determine the time at which ERK1/2 phosphorylation was maximal after stimulation by each agonist. Cells were seeded onto transparent 96-well cell culture plates at 4×10^4 cells per well. After 6 h, cells were washed once with PBS, and then incubated in serum-free DMEM overnight, to allow FBS-stimulated phosphorylated ERK1/2 levels to subside. […] 10% (v/v) FBS was used as a positive control, with vehicle controls also included. The reaction was terminated by removal of study drugs and lysis of cells with 100 μL of SureFire lysis buffer (TGR Biosciences). Cell were lysed in SureFire lysis buffer and transferred to 384-well opaque proxiplates. Under low-light conditions, a 1:120 (v:v) dilution of AlphaScreen beads (both acceptor and donor):Surefire reaction buffer was prepared, which was mixed with the activation buffer in a ratio of 6:1 (v:v), respectively. Plates were incubated in the dark at 37° C. for 1 h before the fluorescence signal was measured by a Fusion-α plate reader (PerkinElmer Life and Analytical Sciences, Foster city, CA, USA) with standard AlphaScreen settings. Data were normalized to the maximal response elicited by 10% (v/v) FBS at the same time point.
Receptor mediated pERK1/2 levels were determined using the AlphaScreen™ ERK1/2 SureFire™ kit, as described previously (Keov, P et al., 2014). For all experiments, 10% FBS was used as internal positive control to stimulate pERK1/2, and which the maximum responses were used for normalization of data, whilst vehicle was used as negative control.
as §3
In the present study, FIp-IN CHO cells and Gateway plasmid were obtained from Invitrogen Inc (Carlsbad, Calif., USA). The sequences for all 3 known human FPRs (hFPR1, hFPR2 and hFPR3) were amplified by PCR and cloned into the Gateway entry vector, pDONR202TM, using the BP clonase enzyme mix, according to the manufacturers' instructions. The hFPR pDONR201TM constructs were subsequently transfected into the pEF5/FRT/V5/dest vector using the LR clonase enzyme mix (Invitrogen).

For the compound `COc1cccc(Cc2cc(C)nn(C(C)C(=O)Nc3ccc(Cl)cc3)c2=O)c1` (stereo not shown) [MIPS008744], the “Calcium Rmax” value on hFPR1 [1] turned out to be 20 ± 5. Besides, on hFPR1 [2], the “ERK Rmax” value is 95 ± 5 and the “ERK pEC50” value turned out to be 5.47 ± 0.12.

For the compound `COc1cccc(Cc2cc(C)nn(C(C)C(=O)Nc3cccc(F)c3)c2=O)c1` (stereo not shown) [MIPS-0008745], at hFPR1 [2], the “ERK Rmax” value turned out to be 50 ± 4 and the “ERK pEC50” value is on record as 5.12 ± 0.38.

For the compound `COc1cccc(Cc2cc(C)nn(C(C)C(=O)Nc3ccc(F)cc3)c2=O)c1` (stereo not shown) [MIPS-0008749], on hFPR1 [2], the “ERK Rmax” value amounted to 57 ± 2 and the “ERK pEC50” value came to 5.07 ± 0.18.

In the case of `COc1cccc(Cc2cc(C)nn(C(C)C(=O)Nc3ccc4c(c3)OCO4)c2=O)c1` (stereo not shown) [MIPS-0008750], at hFPR1 [1], the “Calcium Rmax” value stood at 26 ± 6. At hFPR1 [2], the “ERK Rmax” value is 74 ± 7 and the EC50 was 5.75 µM.

For the compound `COc1ccc(Cc2cc(C)nn(C(C)C(=O)Nc3ccc(Br)cc3)c2=O)cc1` (stereo not shown) [MIPS-0008853], the “Calcium Rmax” value on hFPR1 [1] is 26 ± 6. Besides, on hFPR1 [2], the “ERK Rmax” value amounted to 81 ± 6 and the “ERK pEC50” value turned out to be 5.58 ± 0.14.

In the case of `COc1ccccc1Cc1cc(C)nn(C(C)C(=O)Nc2ccc(Br)cc2)c1=O` (stereo not shown) [MIPS-0008854], the “Calcium Rmax” value at hFPR1 [1] is recorded as 26 ± 9. Moreover, at hFPR1 [2], the “ERK Rmax” value was 76 ± 3 and the “ERK pEC50” value came to 6.07 ± 0.11.

Turning to `COc1cccc(Cc2cc(C)nn(C(C)C(=O)Nc3ccc4c(c3)OCO4)c2=O)c1` (stereo not shown) [MIPS-0008856], the “Calcium Rmax” value at hFPR1 [1] stood at 19 ± 3. Further, on hFPR1 [2], the “ERK Rmax” value amounted to 64 ± 4 and the EC50 is 12.6 µM.

As to `Cc1cc(Cc2ccc(F)cc2)c(=O)n(C(C)C(=O)Nc2ccc(Br)cc2)n1` (stereo not shown) [MIPS-0008857], the “Calcium Rmax” value on hFPR1 [1] stood at 5 ± 1. On hFPR1 [2], the “ERK Rmax” value was found to be 89 ± 1 and the “ERK pEC50” value was 5.74 ± 0.13.

In the case of `Cc1cc(Cc2ccccc2F)c(=O)n(C(C)C(=O)Nc2ccc(Br)cc2)n1` (stereo not shown) [MIPS-0008858], the “Calcium Rmax” value on hFPR1 [1] amounted to 8 ± 2. In addition, at hFPR1 [2], the “ERK Rmax” value is on record as 91 ± 8 and the “ERK pEC50” value stood at 5.75 ± 0.12.

With `Cc1cc(Cc2cccc(F)c2)c(=O)n(C(C)C(=O)Nc2ccc(Br)cc2)n1` (stereo not shown) [MIPS-0008859], the “Calcium Rmax” value at hFPR1 [1] was found to be 18 ± 3. On hFPR1 [2], the “ERK Rmax” value was found to be 93 ± 7 and the “ERK pEC50” value is 5.68 ± 16.

Consider `COc1ccc(OC)c(Cc2cc(C)nn(CC(=O)Nc3ccc(Cl)cc3)c2=O)c1` [MIPS-0010384], for which, at hFPR1 [1], the “Calcium Rmax” value is listed as 19 ± 2 and the EC50 was 6.03 µM. In addition, at hFPR1 [2], the “ERK Rmax” value is recorded as 77 ± 3 and the “ERK pEC50” value is reported as 5.00 ± 0.37.

As to `COc1ccccc1Cc1cc(C)nn(CC(=O)Nc2ccc(Cl)cc2)c1=O` [MIPS-0010392], on hFPR1 [1], the “Calcium Rmax” value was found to be 17 ± 3 and the EC50 was 18.2 µM. At hFPR1 [2], the “ERK Rmax” value worked out at 81 ± 2 and the “ERK pEC50” value is 5.91 ± 0.13.

As to `Cc1cc(Cc2ccccn2)c(=O)n(CC(=O)Nc2ccc(Cl)cc2)n1` [MIPS-0010397], the “Calcium Rmax” value at hFPR1 [1] is recorded as 18 ± 8. Moreover, on hFPR1 [2], the “ERK Rmax” value worked out at 74 ± 3 and the EC50 was 1.02 µM.

`CCc1ccc(NC(=O)Cn2nc(C)cc(Cc3ccccc3OC)c2=O)cc1` [MIPS-0014051]: on hFPR1 [2], the “ERK Rmax” value is listed as 79 ± 9 and the “ERK pEC50” value is listed as 5.30 ± 0.12.

For `COc1ccc(NC(=O)Cn2nc(C)cc(Cc3ccccc3OC)c2=O)cc1` [MIPS-0014052], on hFPR1 [1], the “Calcium Rmax” value was determined as 13 ± 3. Further, on hFPR1 [2], the “ERK Rmax” value came out at 64 ± 6 and the “ERK pEC50” value is on record as 5.10 ± 0.23.

Turning to `Cc1cc(Cc2cccc3c2OCCO3)c(=O)n(CC(=O)Nc2ccc(Cl)cc2)n1` [MIPS-0014053], at hFPR1 [2], the “ERK Rmax” value came out at 78 ± 13 and the EC50 is 1.91 µM.

Regarding `COc1cccc(Cc2cc(C)nn(CC(=O)Nc3ccc(Cl)cc3)c2=O)n1` [MIPS-0014055], at hFPR1 [1], the “Calcium Rmax” value amounted to 11 ± 2. Moreover, on hFPR1 [2], the “ERK Rmax” value was 94 ± 11 and the EC50 was 1.78 µM.

With `Cc1cc(Cc2ccccn2)c(=O)n(CC(=O)Nc2ccc(Cl)cc2)n1` [MIPS-0014057], at hFPR1 [1], the “Calcium Rmax” value came to 45 ± 10 and the EC50 is 4.57 µM. At hFPR1 [2], the “ERK Rmax” value is given as 91 ± 4 and the EC50 was 0.603 µM.

On to `COc1ccccc1Cc1cc(C)nn(CC(=O)Nc2ccc(C)cc2)c1=O` [MIPS-0014058], for which, on hFPR1 [1], the “Calcium Rmax” value came out at 32 ± 1 and the EC50 was 5.01 µM. Besides, at hFPR1 [2], the “ERK Rmax” value is 87 ± 1 and the EC50 is 1.15 µM.

For `COc1ccc(NC(=O)Cn2nc(C)cc(Cc3c(OC)cccc3OC)c2=O)cc1` [MIPS-0014071], on hFPR1 [1], the “Calcium Rmax” value was determined as 48 ± 7 and the EC50 is 2.82 µM. Also, at hFPR1 [2], the “ERK Rmax” value is reported as 78 ± 2 and the EC50 was 2.63 µM.
